Measurements taken from patent publication US10913744B2, “LRRK2 inhibitors and methods of making and using the same” (Dana-Farber Cancer Institute, Inc., priority 2015, dated 2021).
Where two headings read alike, the source gives them in different places.

How the values were obtained:
[1] = target: PRKR (Homo sapiens (Human), UniProt P19525); experiment: KinomeScan; assay type: binding; conditions: 1 uM
[2] = target: p38g MAPK (Homo sapiens (Human), UniProt P53778); experiment: Dundee profiling
[3] = target: HIPK1 (Homo sapiens (Human), UniProt Q86Z02); experiment: Dundee profiling
[4] = target: EGFR (Homo sapiens (Human), UniProt P00533); experiment: KinomeScan; assay type: binding; conditions: 1 uM
[5] = target: CSNK1G3 (Homo sapiens (Human), UniProt Q9Y6M4); experiment: KinomeScan; assay type: binding; conditions: 1 uM
[6] = target: EGFR (T790M) (Homo sapiens (Human), UniProt P00533, T790M); experiment: KinomeScan; assay type: binding; conditions: 1 uM
[7] = target: CDK3 (Homo sapiens (Human), UniProt Q00526); experiment: KinomeScan; assay type: binding; conditions: 1 uM
[8] = target: PIP5K1C (Homo sapiens (Human), UniProt O60331); experiment: KinomeScan; assay type: binding; conditions: 1 uM
[9] = target: CAMK1 (Homo sapiens (Human), UniProt Q14012); experiment: Dundee profiling
[10] = target: p38b MAPK (Homo sapiens (Human), UniProt Q15759); experiment: Dundee profiling
Chain of p38b MAPK (Q15759 whole entry): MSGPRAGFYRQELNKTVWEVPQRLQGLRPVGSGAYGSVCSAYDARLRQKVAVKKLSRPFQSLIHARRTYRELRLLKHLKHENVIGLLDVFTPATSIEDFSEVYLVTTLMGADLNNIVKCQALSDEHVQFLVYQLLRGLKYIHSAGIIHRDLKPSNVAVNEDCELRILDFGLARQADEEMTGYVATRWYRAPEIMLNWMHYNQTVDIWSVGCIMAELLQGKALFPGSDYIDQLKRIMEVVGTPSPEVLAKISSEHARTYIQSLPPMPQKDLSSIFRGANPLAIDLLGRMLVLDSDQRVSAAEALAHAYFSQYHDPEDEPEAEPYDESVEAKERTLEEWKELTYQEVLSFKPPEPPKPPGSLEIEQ

[11] = target: PFTK1 (Homo sapiens (Human), UniProt O94921); experiment: KinomeScan; assay type: binding; conditions: 1 uM
[12] = test system: panel of 451 kinases; experiment: KinomeScan panel selectivity; assay type: binding; conditions: 1 μM
Description: The kinase selectivity of Compound 18 was further evaluated by KinomeScan.

[13] = target: CSNK1G1 (Homo sapiens (Human), UniProt Q9HCP0); experiment: KinomeScan; assay type: binding; conditions: 1 uM
[14] = target: CHEK1 (Homo sapiens (Human), UniProt O14757); experiment: KinomeScan; assay type: binding; conditions: 1 uM
[15] = target: CIT (Homo sapiens (Human), UniProt O14578); experiment: KinomeScan; assay type: binding; conditions: 1 uM
[16] = target: PDK1 (Homo sapiens (Human), UniProt O15530); experiment: Dundee profiling
Chain of PDK1 (O15530 whole entry): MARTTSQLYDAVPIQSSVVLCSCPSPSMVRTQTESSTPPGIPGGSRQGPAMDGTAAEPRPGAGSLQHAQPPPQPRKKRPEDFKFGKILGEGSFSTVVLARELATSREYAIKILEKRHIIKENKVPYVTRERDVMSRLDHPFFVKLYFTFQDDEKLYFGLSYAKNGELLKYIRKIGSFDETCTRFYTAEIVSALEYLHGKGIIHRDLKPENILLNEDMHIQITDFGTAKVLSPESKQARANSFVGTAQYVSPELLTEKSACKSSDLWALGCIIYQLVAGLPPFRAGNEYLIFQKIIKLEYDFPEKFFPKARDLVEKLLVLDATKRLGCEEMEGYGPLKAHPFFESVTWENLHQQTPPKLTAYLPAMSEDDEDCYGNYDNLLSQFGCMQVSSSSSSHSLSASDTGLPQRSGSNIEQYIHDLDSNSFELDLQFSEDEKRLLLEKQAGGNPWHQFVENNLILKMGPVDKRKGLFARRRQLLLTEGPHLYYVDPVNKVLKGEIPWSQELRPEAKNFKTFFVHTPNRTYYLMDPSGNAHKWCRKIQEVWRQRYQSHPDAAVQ

[17] = target: TIE2 (Homo sapiens (Human), UniProt Q02763); experiment: Dundee profiling
[18] = target: PKA (Homo sapiens (Human), UniProt P17612); experiment: Dundee profiling
[19] = target: BMPR2 (Homo sapiens (Human), UniProt Q13873); experiment: KinomeScan; assay type: binding; conditions: 1 uM
[20] = target: DAPK1 (Homo sapiens (Human), UniProt P53355); experiment: Dundee profiling
Chain of DAPK1 (P53355 whole entry, species assumed): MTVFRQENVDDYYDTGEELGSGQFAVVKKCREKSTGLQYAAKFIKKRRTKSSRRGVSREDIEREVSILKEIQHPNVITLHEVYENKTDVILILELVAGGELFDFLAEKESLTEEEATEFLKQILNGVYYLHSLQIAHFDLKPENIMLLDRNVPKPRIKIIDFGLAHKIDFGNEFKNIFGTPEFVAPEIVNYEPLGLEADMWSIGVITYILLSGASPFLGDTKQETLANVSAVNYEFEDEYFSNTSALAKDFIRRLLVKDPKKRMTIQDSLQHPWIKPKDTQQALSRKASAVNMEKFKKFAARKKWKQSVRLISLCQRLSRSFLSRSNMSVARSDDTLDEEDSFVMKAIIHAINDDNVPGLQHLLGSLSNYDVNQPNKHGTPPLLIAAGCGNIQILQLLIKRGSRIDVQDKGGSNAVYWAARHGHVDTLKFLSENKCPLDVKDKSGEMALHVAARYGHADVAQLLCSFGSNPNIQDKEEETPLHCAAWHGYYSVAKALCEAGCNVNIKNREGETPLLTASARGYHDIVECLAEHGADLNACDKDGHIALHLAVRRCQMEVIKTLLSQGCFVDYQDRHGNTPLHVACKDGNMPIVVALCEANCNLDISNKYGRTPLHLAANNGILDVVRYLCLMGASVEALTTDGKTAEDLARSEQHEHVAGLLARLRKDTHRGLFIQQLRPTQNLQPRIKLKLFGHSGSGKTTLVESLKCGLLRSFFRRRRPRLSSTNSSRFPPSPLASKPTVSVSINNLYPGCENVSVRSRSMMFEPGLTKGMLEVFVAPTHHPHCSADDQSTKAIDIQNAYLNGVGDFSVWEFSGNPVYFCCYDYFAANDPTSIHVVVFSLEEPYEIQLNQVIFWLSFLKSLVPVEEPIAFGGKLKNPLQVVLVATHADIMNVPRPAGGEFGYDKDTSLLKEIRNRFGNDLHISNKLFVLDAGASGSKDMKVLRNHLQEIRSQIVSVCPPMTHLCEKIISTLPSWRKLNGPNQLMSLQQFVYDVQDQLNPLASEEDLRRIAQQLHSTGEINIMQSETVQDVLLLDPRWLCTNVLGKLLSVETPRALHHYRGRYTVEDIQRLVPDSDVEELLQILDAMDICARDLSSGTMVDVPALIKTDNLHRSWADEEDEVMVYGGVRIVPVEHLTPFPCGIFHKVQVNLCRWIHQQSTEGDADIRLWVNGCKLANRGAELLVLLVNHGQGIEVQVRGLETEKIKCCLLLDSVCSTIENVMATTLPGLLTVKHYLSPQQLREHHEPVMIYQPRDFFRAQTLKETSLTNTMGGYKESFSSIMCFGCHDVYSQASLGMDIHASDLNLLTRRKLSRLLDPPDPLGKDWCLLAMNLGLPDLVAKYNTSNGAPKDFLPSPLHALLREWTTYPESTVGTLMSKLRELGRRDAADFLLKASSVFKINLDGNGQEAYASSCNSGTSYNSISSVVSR

[21] = target: EGFR (L747-E749del, A750P) (Homo sapiens (Human), UniProt P00533, A750P/DEL747-749); experiment: KinomeScan; assay type: binding; conditions: 1 uM
[22] = target: CDK2 (Homo sapiens (Human), UniProt P24941); experiment: KinomeScan; assay type: binding; conditions: 1 uM
[23] = target: SIK3 (Homo sapiens (Human), UniProt Q9Y2K2); experiment: Dundee profiling
[24] = target: Lck (Homo sapiens (Human), UniProt P06239); experiment: Dundee profiling
[25] = target: MAP4K3 (Homo sapiens (Human), UniProt Q8IVH8); experiment: KinomeScan; assay type: binding; conditions: 1 uM
[26] = target: PIM2 (Homo sapiens (Human), UniProt Q9P1W9); experiment: Dundee profiling
[27] = target: WNK1 (Homo sapiens (Human), UniProt Q9H4A3); experiment: Dundee profiling
[28] = target: QSK (Homo sapiens (Human), UniProt Q9Y2K2); experiment: KinomeScan; assay type: binding; conditions: 1 uM
[29] = target: CSK (Homo sapiens (Human), UniProt P41240); experiment: Dundee profiling
[30] = target: HIPK2 (Homo sapiens (Human), UniProt Q9H2X6); experiment: Dundee profiling
Chain of HIPK2 (Q9H2X6 whole entry, looked up, species assumed): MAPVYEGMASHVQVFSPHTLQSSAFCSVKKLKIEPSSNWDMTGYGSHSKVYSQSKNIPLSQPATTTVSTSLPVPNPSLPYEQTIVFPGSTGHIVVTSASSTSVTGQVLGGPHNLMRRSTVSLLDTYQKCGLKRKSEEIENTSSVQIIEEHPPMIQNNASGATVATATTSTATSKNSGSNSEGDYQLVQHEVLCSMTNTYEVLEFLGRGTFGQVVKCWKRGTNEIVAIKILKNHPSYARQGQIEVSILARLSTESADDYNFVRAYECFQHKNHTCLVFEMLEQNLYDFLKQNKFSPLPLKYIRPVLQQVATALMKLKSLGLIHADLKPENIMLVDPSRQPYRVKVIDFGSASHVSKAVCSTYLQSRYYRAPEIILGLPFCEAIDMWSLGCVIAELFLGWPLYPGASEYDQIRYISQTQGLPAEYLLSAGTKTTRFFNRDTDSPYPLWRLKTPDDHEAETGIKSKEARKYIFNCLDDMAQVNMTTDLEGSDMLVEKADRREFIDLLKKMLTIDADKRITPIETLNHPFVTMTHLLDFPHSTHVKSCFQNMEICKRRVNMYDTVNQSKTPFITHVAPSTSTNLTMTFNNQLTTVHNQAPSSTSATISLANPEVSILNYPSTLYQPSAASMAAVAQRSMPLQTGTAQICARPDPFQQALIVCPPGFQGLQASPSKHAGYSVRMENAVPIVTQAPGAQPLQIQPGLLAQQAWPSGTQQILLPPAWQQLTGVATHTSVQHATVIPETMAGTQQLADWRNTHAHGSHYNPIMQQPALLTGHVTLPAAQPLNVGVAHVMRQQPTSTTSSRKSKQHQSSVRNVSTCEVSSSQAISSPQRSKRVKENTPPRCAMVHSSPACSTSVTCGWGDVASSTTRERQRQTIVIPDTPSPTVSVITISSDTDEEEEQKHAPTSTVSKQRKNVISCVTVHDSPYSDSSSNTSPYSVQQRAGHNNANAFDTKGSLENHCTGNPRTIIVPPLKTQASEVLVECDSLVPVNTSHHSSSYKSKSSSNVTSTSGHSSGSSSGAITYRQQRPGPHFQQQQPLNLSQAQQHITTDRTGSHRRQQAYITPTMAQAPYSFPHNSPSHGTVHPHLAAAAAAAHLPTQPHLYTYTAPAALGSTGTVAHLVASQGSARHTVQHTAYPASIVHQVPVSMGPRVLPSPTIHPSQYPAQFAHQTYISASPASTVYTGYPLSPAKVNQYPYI

[31] = target: MST2 (Homo sapiens (Human), UniProt Q13188); experiment: Dundee profiling
Chain of MST2 (Q13188 whole entry, looked up, species assumed): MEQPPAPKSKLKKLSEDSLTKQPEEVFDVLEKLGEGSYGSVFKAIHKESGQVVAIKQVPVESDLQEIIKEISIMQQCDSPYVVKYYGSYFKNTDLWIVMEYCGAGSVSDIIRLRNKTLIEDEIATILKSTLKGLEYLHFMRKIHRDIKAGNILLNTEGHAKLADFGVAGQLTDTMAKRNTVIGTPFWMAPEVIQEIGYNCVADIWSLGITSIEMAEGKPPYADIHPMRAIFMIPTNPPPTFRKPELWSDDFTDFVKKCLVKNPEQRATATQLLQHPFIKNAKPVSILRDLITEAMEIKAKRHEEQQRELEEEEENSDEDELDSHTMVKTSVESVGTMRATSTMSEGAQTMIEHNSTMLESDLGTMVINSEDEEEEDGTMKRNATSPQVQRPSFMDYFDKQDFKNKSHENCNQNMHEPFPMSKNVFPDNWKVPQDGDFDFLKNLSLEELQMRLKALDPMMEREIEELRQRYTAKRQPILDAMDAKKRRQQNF

[32] = target: TYK2 (JH1domain-catalytic) (Homo sapiens (Human), UniProt P29597); experiment: KinomeScan; assay type: binding; conditions: 1 uM
[33] = target: NEK6 (Homo sapiens (Human), UniProt Q9HC98); experiment: Dundee profiling
Chain of NEK6 (Q9HC98 whole entry, species assumed): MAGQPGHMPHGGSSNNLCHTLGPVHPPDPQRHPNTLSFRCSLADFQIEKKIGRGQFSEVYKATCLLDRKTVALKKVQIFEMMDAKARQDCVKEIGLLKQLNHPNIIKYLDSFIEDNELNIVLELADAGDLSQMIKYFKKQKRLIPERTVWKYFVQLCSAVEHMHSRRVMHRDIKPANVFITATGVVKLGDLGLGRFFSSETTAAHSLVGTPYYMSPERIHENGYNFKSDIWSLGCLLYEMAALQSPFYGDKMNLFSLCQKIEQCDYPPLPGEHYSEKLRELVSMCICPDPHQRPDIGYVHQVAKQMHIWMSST

[34] = target: MELK (Homo sapiens (Human), UniProt Q14680); experiment: Dundee profiling
[35] = target: ULK1 (Homo sapiens (Human), UniProt O75385); experiment: Dundee profiling
[36] = target: PKCa (Homo sapiens (Human), UniProt P17252); experiment: Dundee profiling
[37] = read-out: percent remaining enzymatic activity, I1, 1 μM
[38] = read-out: percent remaining enzymatic activity, I10
[39] = read-out: percent remaining enzymatic activity

Compound `CNc1nc(Nc2ccc(C(=O)N3CCOCC3)cc2OC)nc2[nH]cc(Cl)c12` [Compound 18, (4-((5-chloro-4-(methylamino)-7H-pyrrolo[2,3-d]pyrimidin-2-yl)amino)-3-methoxyphenyl)(morpholino)methanone] has a KinomeScan value [1] of 96, a remaining activity at 1 µM [2, 37] of 116% and a remaining activity at 1 µM [2, 38] of 96%. It also gave a remaining activity at 1 µM [3, 37] of 95%, a remaining activity at 1 µM [3, 38] of 44% and a KinomeScan value [4] of 93. The KinomeScan value [5] was 100, the KinomeScan value [6] was 97 and the KinomeScan value [7] was 96. For the same compound, the KinomeScan value [8] was 100, the remaining activity at 1 µM [9, 37] was 80% and the remaining activity at 1 µM [9, 38] was 34%. For the same compound, the remaining activity at 1 µM [10, 37] was 108%, the remaining activity at 1 µM [10, 38] was 79% and the KinomeScan value [11] was 82. The “kinase selectivity, interactions detected” value [12] was “no interactions detected with kinases other than LRRK2[G2019S] with the exception of TTK and RPS6KA4”, the KinomeScan value [13] was 97 and the KinomeScan value [14] was 100. The KinomeScan value [15] was 92, the remaining activity at 1 µM [16, 37] was 91% and the remaining activity at 1 µM [16, 38] was 88%. It also gave a remaining activity at 1 µM [17, 37] of 104%, a remaining activity at 1 µM [17, 38] of 94% and a remaining activity at 1 µM [18, 37] of 99%. The remaining activity at 1 µM [18, 38] was 101%, the KinomeScan value [19] was 100 and the remaining activity at 1 µM [20, 37] was 21%. The remaining activity at 1 µM [20, 38] was 5%, the KinomeScan value [21] was 81 and the KinomeScan value [22] was 95. The “percent remaining enzymatic activity” value ([23]; I10) was 96%, the remaining activity at 1 µM [23, 39] was 107% and the remaining activity at 1 µM [24, 37] was 97%. It also gave a remaining activity at 1 µM [24, 38] of 111%, a KinomeScan value [25] of 100 and a remaining activity at 1 µM [26, 37] of 95%. The remaining activity at 1 µM [26, 38] was 82%, the “percent remaining enzymatic activity” value ([27]; I10) was 115% and the remaining activity at 1 µM [27, 39] was 108%. For the same compound, the KinomeScan value [28] was 86, the “percent remaining enzymatic activity” value ([29]; I10) was 92% and the remaining activity at 1 µM [29, 39] was 89%. It also gave a remaining activity at 1 µM [30, 37] of 84%, a remaining activity at 1 µM [30, 38] of 43% and a remaining activity at 1 µM [31, 37] of 90%. The remaining activity at 1 µM [31, 38] was 82%, the KinomeScan value [32] was 99 and the remaining activity at 1 µM [33, 37] was 101%. The remaining activity at 1 µM [33, 38] was 83%, the remaining activity at 1 µM [34, 37] was 118% and the remaining activity at 1 µM [34, 38] was 79%. For the same compound, the “percent remaining enzymatic activity” value ([35]; I10) was 95%, the remaining activity at 1 µM [35, 39] was 103% and the remaining activity at 1 µM [36, 37] was 102%. It also gave a remaining activity at 1 µM [36, 38] of 100%.
